Assay results: PubChem BioAssay AID248 (DTP/NCI, 2004)
“And” between values parts separate entries of the source, which are not always exact repeats. Identical values can stand only once. Toxic doses and inconclusive results are not listed. No stated cut-off is given here; in the data, active means T/C of 150% or more; inactive means T/C below 125%.

Tested on: L1210 leukemia ip in BDF1 mice, survival T/C
Test: NCI In Vivo Anticancer Drug Screen. Data for tumor model L1210 Leukemia (intraperitoneal) in B6D2F1 (BDF1) mice
Details: endpoint: mean survival time, higher = longer survival
In short: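 Ratio derived from survival: compound-dosed mice over vehicle-dosed mice, all bearing a transplantable tumor.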

[1] = dose: 100.0 mg/kg/injection, schedule: Q01DX009 (ip), vehicle: Klucel (hydroxypropylcellulose) (HPC)
[2] = dose: 100.0 mg/kg/injection, schedule: Q01DX001 (ip), vehicle: carboxymethylcellulose (CMC)
[3] = dose: 200.0 mg/kg/injection, schedule: Q01DX001 (ip), vehicle: carboxymethylcellulose (CMC)
[4] = dose: 400.0 mg/kg/injection, schedule: Q01DX001 (ip), vehicle: carboxymethylcellulose (CMC)

Measured: T/C

CCCCCCCCCCC(=O)N(CC)CC
inactive: dose: 100.0 mg/kg/injection, schedule: Q01DX009 (ip), vehicle: carboxymethylcellulose (CMC) 97 % of control and 92 % of control | dose: 100.0 mg/kg/injection, schedule: Q04DX002 (ip), vehicle: carboxymethylcellulose (CMC) 94 % of control | dose: 200.0 mg/kg/injection, schedule: Q01DX009 (ip), vehicle: carboxymethylcellulose (CMC) 97 % of control and 100 % of control | dose: 200.0 mg/kg/injection, schedule: Q04DX002 (ip), vehicle: carboxymethylcellulose (CMC) 96 % of control | dose: 400.0 mg/kg/injection, schedule: Q01DX009 (ip), vehicle: carboxymethylcellulose (CMC) 96 % of control | dose: 400.0 mg/kg/injection, schedule: Q04DX002 (ip), vehicle: carboxymethylcellulose (CMC) 100 % of control

c1ccc(N/N=C(/C[n+]2cc3ccccc3c3ccccc32)c2ccccc2)cc1
inactive: dose: 12.5 mg/kg/injection, schedule: Q01DX009 (ip), vehicle: Klucel (hydroxypropylcellulose) (HPC) 100 % of control | dose: 25.0 mg/kg/injection, schedule: Q01DX009 (ip), vehicle: Klucel (hydroxypropylcellulose) (HPC) 89 % of control | dose: 50.0 mg/kg/injection, schedule: Q01DX009 (ip), vehicle: Klucel (hydroxypropylcellulose) (HPC) 102 % of control | [1] 100 % of control

CC(=O)Nc1ncc(/C=C/C=C/c2ccc([N+](=O)[O-])cc2)c(NC(C)=O)n1
inactive: dose: 100.0 mg/kg/injection, schedule: Q01DX001 (ip), vehicle: Klucel (hydroxypropylcellulose) (HPC) 91 % of control | dose: 200.0 mg/kg/injection, schedule: Q01DX001 (ip), vehicle: Klucel (hydroxypropylcellulose) (HPC) 86 % of control | dose: 400.0 mg/kg/injection, schedule: Q01DX001 (ip), vehicle: Klucel (hydroxypropylcellulose) (HPC) 87 % of control

O=C(Nc1ccc(NC(=O)/C(Cl)=C/Cl)c2c1C(=O)c1ccccc1C2=O)/C(Cl)=C/Cl
inactive: [2] 92 % of control | [3] 92 % of control | [4] 100 % of control

O=[N+]([O-])c1ccc2c(c1)Cc1cc(O)c(I)cc1-2
inactive: [2] 101 % of control | [3] 101 % of control | [4] 97 % of control

CC(=O)OC1CC2C(C(=O)O)C2C1OC(C)=O (configuration not stated)
inactive: dose: 100.0 mg/kg/injection, schedule: Q01DX001 (ip), vehicle: saline with Tween-80 104 % of control | dose: 200.0 mg/kg/injection, schedule: Q01DX001 (ip), vehicle: saline with Tween-80 92 % of control | dose: 400.0 mg/kg/injection, schedule: Q01DX001 (ip), vehicle: saline with Tween-80 95 % of control

O=C1NCC(Nc2ccc(Cl)cc2)C(=O)N1 (configuration not stated)
inactive: dose: 100.0 mg/kg/injection, schedule: Q01DX Z (ip), vehicle: methylcellulose (MC) 89 % of control | dose: 200.0 mg/kg/injection, schedule: Q01DX Z (ip), vehicle: methylcellulose (MC) 92 % of control

CCC(=O)NCC(=O)O
inactive: dose: 6.25 mg/kg/injection, schedule: Q01DX009 (ip), vehicle: saline 103 % of control | dose: 6.25 mg/kg/injection, schedule: Q04DX003 (ip), vehicle: saline 96 % of control | dose: 12.5 mg/kg/injection, schedule: Q01DX009 (ip), vehicle: saline 95 % of control | dose: 12.5 mg/kg/injection, schedule: Q04DX003 (ip), vehicle: saline 96 % of control | dose: 25.0 mg/kg/injection, schedule: Q01DX009 (ip), vehicle: saline 92 % of control | dose: 25.0 mg/kg/injection, schedule: Q04DX003 (ip), vehicle: saline 100 % of control

COC(=O)c1c(OC)cc(OC)cc1OC
inactive: dose: 100.0 mg/kg/injection, schedule: Q01DX009 (ip), vehicle: other 96 % of control | dose: 100.0 mg/kg/injection, schedule: Q04DX003 (ip), vehicle: saline 100 % of control | dose: 200.0 mg/kg/injection, schedule: Q01DX009 (ip), vehicle: other 96 % of control | dose: 200.0 mg/kg/injection, schedule: Q04DX003 (ip), vehicle: saline 97 % of control | dose: 400.0 mg/kg/injection, schedule: Q01DX009 (ip), vehicle: other 94 % of control | dose: 400.0 mg/kg/injection, schedule: Q04DX003 (ip), vehicle: saline 95 % of control

CCCCNC(=O)Nc1ccc(SC)cc1
inactive: [1] 103 % of control | dose: 100.0 mg/kg/injection, schedule: Q04DX003 (ip), vehicle: Klucel (hydroxypropylcellulose) (HPC) 94 % of control | dose: 200.0 mg/kg/injection, schedule: Q01DX009 (ip), vehicle: Klucel (hydroxypropylcellulose) (HPC) 95 % of control | dose: 200.0 mg/kg/injection, schedule: Q04DX003 (ip), vehicle: Klucel (hydroxypropylcellulose) (HPC) 93 % of control | dose: 400.0 mg/kg/injection, schedule: Q01DX009 (ip), vehicle: Klucel (hydroxypropylcellulose) (HPC) 88 % of control | dose: 400.0 mg/kg/injection, schedule: Q04DX003 (ip), vehicle: Klucel (hydroxypropylcellulose) (HPC) 94 % of control
